Measured values from patent US12594317B2 (priority 2020, dated 2026).

System: HEK293 cell line stably expressing ACE2 receptor infected by COVID-19 pseudovirus
Format: cell-based, human
Details: positive control group, 10 μL of 100 μM solution per well, 48 h

Compound: CCN(CC)CCCC(C)Nc1ccnc2cc(Cl)ccc12 (stereo not shown) [chloroquine phosphate]
- RLU/RLUc value (ratio of fluorescence value of test group to average fluorescence intensity of negative control group): 0.05±0.01
